# Positions of bridges follow the written chain, without caps; N, C: chain ends. Residues, ends and D or L forms follow the SMILES beside them.
# Test system: MCF7
# Test: Cytotoxicity against human MCF7 cells assessed as decrease in cell viability at 10 uM after 72 hrs by MTT assay
# Assay type: functional, cell-based
# Conditions: MCF7, 72 h
row,SMILES,IC50 [nM]
1,CC[C@H](C)[C@@H]1NC(=O)[C@@H]2CSSC[C@@H](C(=O)N[C@@H](Cc3ccc(O)cc3)C(=O)N[C@@H](CCCNC(=N)N)C(=O)N[C@@H](CC(=O)O)C(=O)O)NC(=O)[C@H](C(C)C)NC(=O)[C@H](CCCCN)NC(=O)[C@H](CC(N)=O)NC(=O)[C@H](CCCCN)NC(=O)[C@H]3CSSC[C@H](NC(=O)[C@H](CO)NC(=O)[C@H](CCC(=O)O)NC(=O)CNC(=O)[C@@H](NC(=O)[C@@H]4CCCN4C(=O)[C@@H](NC(=O)[C@@H](NC(=O)CN)C(C)C)[C@@H](C)CC)CSSC[C@@H](NC(=O)CNC(=O)[C@H](CC(C)C)NC(=O)[C@H](C(C)C)NC(=O)[C@H](CO)NC(=O)[C@H](CO)NC1=O)C(=O)N[C@@H](CO)C(=O)N3)C(=O)N[C@@H](C(C)C)C(=O)N[C@@H](Cc1ccccc1)C(=O)N[C@@H]([C@@H](C)CC)C(=O)N1CCC[C@H]1C(=O)N2,640
2,CC[C@H](C)[C@H](NC(=O)CN)C(=O)N[C@@H](C)C(=O)N[C@H]1CSSC[C@H]2NC(=O)CNC(=O)[C@@H]3CCCN3C(=O)[C@H]([C@@H](C)CC)NC(=O)[C@H](Cc3ccccc3)NC(=O)[C@@H]3CSSC[C@@H](C(=O)N[C@@H](Cc4ccc(O)cc4)C(=O)N[C@@H](Cc4ccccc4)C(=O)N[C@@H](CC(N)=O)C(=O)O)NC(=O)[C@H](C(C)C)NC(=O)[C@H](CCCCN)NC(=O)[C@H](CO)NC(=O)[C@H](CCCCN)NC(=O)[C@H](CSSC[C@H](NC(=O)[C@H](CO)NC(=O)[C@H](CCC(=O)O)NC(=O)CNC1=O)C(=O)N[C@@H](C(C)C)C(=O)N[C@@H](Cc1ccccc1)C(=O)N[C@@H](CC(C)C)C(=O)NCC(=O)N3)NC(=O)[C@H](CO)N2,7770
3,"CC(C)C[C@H](NC(=O)[C@@H](N)CCCCN)C(=O)N[C@H]1CSSC[C@@H]2NC(=O)[C@H](CO)NC(=O)[C@H](CS)NC(=O)CNC(=O)[C@@H]3CCCN3C(=O)[C@H]([C@@H](C)O)NC(=O)[C@H](Cc3ccc(O)cc3)NC(=O)[C@@H]3CSSC[C@@H](C(=O)N[C@@H](CCCCN)C(=O)O)NC(=O)[C@H](Cc4ccccc4)NC(=O)[C@@H]4CCCN4C(=O)[C@H](Cc4ccc(O)cc4)NC(=O)[C@H](CO)NC(=O)[C@H](CSSC[C@H](NC(=O)[C@H]([C@@H](C)O)NC(=O)[C@H](CCC(=O)O)NC(=O)CNC1=O)C(=O)N[C@@H](Cc1ccccc1)C(=O)N[C@@H](CCCCN)C(=O)N[C@@H](Cc1ccccc1)C(=O)N[C@@H](CCCCN)C(=O)N3)NC(=O)[C@H](CO)NC2=O (H-KLCGETCFKFKCYTPGCSCSCSYPFCK-OH; disulfide 3-19, 7-21, 12-26)",2980

# From ChEMBL document CHEMBL4002558, “Characterization of a Bioactive Acyclotide from Palicourea rigida” (J Nat Prod, 2016)
